According to patent US20120219568A1, “EPIDITHIODIOXO[…] USES THEREOF IN TREATING CANCER” (priority 2011, published 2012):

Columns and labels:
SW620 cells [1] = assay: Cytochrome C release; assay type: cell-based, human; details: SW620, combinational treatment of verticillin A and TRAIL
Method: (§1) Tumor cells were lysed in lysis buffer containing 20 mM HEPES, pH 7.4, 20 mM NaCl, 10% glycerol, 1% Triton X-100, and a protease inhibitor cocktail (Calbiochem, La Jolla, Calif.). Cellular proteins were separated by 12% or 4-20% SDS-PAGE gradient gels, transferred to Immobilon-P membranes (Millipore, Bedford, Mass.) or nitrocellulose (Bio-Rad, Hercules, Calif.), and probed with the following primary antibodies: anti-FLIP (Cell Sinnaling, Danvers, Mass.) at 1:250; anti-survivin (Santa Cruz Biotech) at 1:100; anti-cIAP1 (cell signaling) at 1:250; anti-xIAP (cell Signaling) at 1:500; anti-Bad (Cell Signaling) at 1:1000; anti-Bax (Cell Signaling) at 1:2000; anti-Mcl-1 (Santa Cruz) at 1:100); anti-A-CDase (BD Biosciences) at 1:1000; anti-CytC (BD Biosciences) at 1:1000; and β-actin (Sigma, St Louis, Mo.) at 1:8000. The blots were then washed and incubated with horseradish peroxidase-conjugated anti-goat (Santa Cruz Biotech), anti-mouse or rabbit (Amersham-Pharmacia, Piscataway, N.J.) IgGs. Blots were detected using the ECL Plus Western detection kit (Amersham Pharmacia Biotech).

Bcap-37 = assay: MTT growth inhibition, Bcap-37; assay type: cell-based; details: Homo sapiens, Bcap37, Mammary Carcinoma, MTT assay
Method: (§2) For cell viability assay, cells were seeded in wells of 96-well plates for 2 days and then treated with different concentrations of mushroom extract fractions or purified verticillin A for 2 days. The cells were then incubated with MTT (3-(4,5-dimethylthiazol-2-yl)-2,5-diphenyltetrazolium bromide) using the MTT assay kit (ATCC, Manassas, Va.) according to the manufacturer's instructions.
(§3) To determine whether verticillin A inhibits other types of tumor cell growth, Mammary carcinoma (Bcap-37 and MCF-7), heptocarcinoma (HepG2), cervical (HeLa), liver (SMMC-7721), lung (SPC-A1) cancer cells and T cell leukemia (Jurkat) were cultured in the presence of different concentrations of verticillin A and examined for the efforts of verticillin A on the growth rate of these tumor cells in vitro.

BNIP3 = BNIP3 expression level; assay type: cell-based, human; details: SW620 and HepG2 cells
Method: Because verticillin A enhances tumor cell apoptosis through the mitochondrion-dependent pathway, the expression levels of apoptosis-related genes of the mitochondrion-mediated apoptosis pathway was analyzed.

SMMC-7721 = assay: MTT growth inhibition, SMMC-7721; assay type: cell-based; details: Homo sapiens, Hepatoma, MTT assay
Method: as §2, §3

Hela = assay: MTT growth inhibition, Hela; assay type: cell-based; details: Homo sapiens, Cervical Cancer, MTT assay
Method: as §2, §3

SW620 cells [2] = assay: SW620 growth with anticancer drugs, MTT assay; assay type: cell-based, human; details: Verticillin A pretreatment, then Etoposide, Cisplatin, 5-FU or Doxorubicin
Method: as §2
Etoposie, Cisplatin, 5-FU and Doxorubicin are commonly used cancer drugs that suppress tumor cell growth through their cytotoxicity. High cytotoxicity is often associated with high dose of their drugs. Furthermore, tumor cells often develop resistance to these cytotoxic drugs. To determine whether Verticillin A can increase the efficacy of these drugs and overcome drug resistance, the effectiveness of Verticillin A combined with these 4 drugs in suppression of tumor cell growth was tested in vitro. SW620 cell sensitivity to these drugs was first measured. SW620 cells are resistant to Etoposide but sensitive to 5-FU. […] SW620 cells were next pretreated with Verticillin A, followed by treatment with Etoposide (1 μg/ml), Cisplatin (1 μg/ml), 5-FU ([…]) and Doxorubicin (0.01 μg/ml), respectively.

[3] = tested on: 6 other human colon carcinoma cells; assay: TRAIL sensitization in other colon carcinoma cells; assay type: cell-based; details: verticillin A and TRAIL
Method: (§4) Cells were seeded in wells of 96-well plates for 2 days and then treated with different concentrations of mushroom extract fractions or purified verticillin A for 2 days. The cells were stained with propidium iodide (PI) (Trevigen, Gaithersburg, Md.) or PI plus annexin V-Alex Fluor 647 (Biolegend, San Diego, Calif.) and analyzed by flow cytometry.
(§5) The sensitization effects of verticillin A was examined in other types of tumor cells.

A-CDase = A-CDase protein level, Western blot; assay type: cell-based, human; details: after verticillin A treatment
Method: as §1
To elucidate the molecular mechanisms underlying verticillin A sensitization of tumor cells to TRAIL-mediated apoptosis, the protein levels of genes known to function in the mitochondrion-mediated apoptosis pathway were analyzed. […]

[4] = tested on: BNIP3, IRF8, Neurog1, p15ink4b, RUNX3; assay: Expression of genes with methylated promoters; assay type: cell-based, human; details: SW620, verticillin A 0-50 nM
Method: To determine whether verticillin A inhibits DNA methylation in other gene promoters, 4 other genes (IRF8, Neurog1, p15ink4b, RUNX3) with known promoter DNA methylation in human colon carcinoma cells were selected. SW620 cells were treated with AzadC (0-1.0 μM) and verticillin A (0-50 nM), respectively, and analyzed for the expression of BNIP3 and these 4 genes.

[5] = tested on: sarcoma (MC-WST-724), and mammary carcinoma (MCF-7); assay: TRAIL co-treatment apoptosis in other tumor cell types; assay type: cell-based; details: co-treatment with verticillin A and TRAIL
Method: as §4, §5

SW620 tumor xenograft = SW620 tumor xenograft growth in athymic mice; assay type: in vivo
Method: Athymic mice were subcutaneously inoculated with human hepatoma HepG2 and colon carcinoma SW620 cells, respectively. The tumor-bearing mice were randomized into experimental groups. The control mice were given saline. The treatment group was intravenously injected with verticillin A at the doses of 1 and 2 mg/kg body weight. Tumor size was measured in 2 diameter with micrometer caliper at the indicate times to permit calculation of tumor volume, V=(a×b^2)/2, where “a” is the length and “b” is the width in millimeters. At the end of the experiment, all the animals were sacrificed, The tumor inhibitory rates were calculated using the following formula: [(mean tumor volume of control nude mice−mean tumor volume of treated nude mice)/mean tumor volume of control nude mice]×100%.
The disclosed observations indicate that verticillin A can dramatically increase TRAIL-induced tumor cell apoptosis. To determine whether these in vitro observations can be extended to enhance TRAIL-mediated tumor suppression in vivo, SW620 cells were injected subcutaneously to athymic mice, verticillin A and TRAIL, either used as single agent or in combination, were then injected to the tumor-bearing mice. Tumor growth rate were measured in different time points. Verticillin A can inhibit tumor cell growth in vitro at high dose and sensitize tumor cells to TRAIL-induced apoptosis at a low dose. […] As expected, SW620 tumors are resistant to TRAIL (Voelkel-Johnson C, et al. Mol Cancer Ther 2005 4(9):1320-7).

CN1C(=O)[C@]23SS[C@]1(C)C(=O)N2C1Nc2ccccc2[C@@]1(C12c4ccccc4NC1N1C(=O)[C@@]4(C)SS[C@]1(C(=O)N4C)[C@H]2O)[C@@H]3O (stereo partly shown) [Verticillin A]
cytochrome C release (SW620 cells [1]): dramatically increased cytochrome C release
IC50 (Bcap-37): 119 nM
BNIP3 expression level (BNIP3): increased BNIP3 expression level in a dose-dependent manner
IC50 (SMMC-7721): 80 nM
IC50 (Hela): 122 nM
tumor growth inhibitory effect of the drugs combined with Verticillin A (SW620 cells [2]): significantly increased the tumor growth inhibitory effects
sensitization to TRAIL-induced apoptosis [3]: sensitization effect of verticillin A was also observed
A-CDase expression level (A-CDase): decreased after verticillin A treatment at a dose-dependent manner
expression levels of BNIP3, IRF8, Neurog1, p15ink4b, RUNX3 [4]: dramatically increased the expression levels of BNIP3 and these 4 genes
apoptosis rate versus single agent alone [5]: significantly increased the apoptosis rate
tumor suppression activity, verticillin A alone (SW620 tumor xenograft; 0.125 mg/kg body weight): did not exhibit significant tumor suppression activity
tumor xenograft growth, combination treatment (SW620 tumor xenograft; low dose verticillin A (0.125 mg/kg) and TRAIL): significantly inhibited the tumor xenograft growth
lowest dose enhancing the efficacy of TRAIL in suppressing human cancer growth (SW620 tumor xenograft; nude mice): 0.125 mg/kg
